Measured values published in patent US20240199654A1, “CTLA-4 SMALL MOLECULE DEGRADATION AGENT AND APPLICATION THEREOF” (SUZHOU GUOKUANG PHARMTECH. CO., LTD., priority 2021, published 2024).

Tests used:
[1] = tested on: Mouse colon cancer MC-38 cells; assay: In vivo activity research of xenograft model (MC-38); design: species or system C57BL/6 mice; conditions: for TGI(%): 30 mg/kg, oral, once a day, MC-38 subcutaneous in C57BL/6 mice
Protocol: 1. Cell culture: Mouse colon cancer MC-38 cells were adherently cultured in vitro. The culture conditions were RPMI-1640 medium with 10% fetal bovine serum, 100 U/mL penicillin and 100 μg/mL streptomycin, 37° C. 5% CO2 incubator culture. Passaged with routine processing two to three times a week. When the cell saturation was 80%-90% and the number reached the requirement, the cell count was collected, and the cell concentration was adjusted for experimental inoculation. 2. Animals: C57BL/6 mice, female, 7 weeks old, 18-20 grams in weight, 8 mice per group. 3. Tumor inoculation: 0.02 mL (0.2×10^6) MC-38 cells were subcutaneously inoculated into the right back of each mouse. On the 7th day after inoculation, the tumor volumes of the animals were measured, and then the groups were randomized according to tumor volume and administration was started. 4. Experimental indicators: The experimental indicators were used to examine whether the tumor growth is inhibited, delayed or cured. Tumor diameters were measured with vernier calipers two to three times a week. The calculation formula of tumor volume is: V=0.5a×b^2, wherein a and b respectively represent the long and short diameters of tumors. The anti-tumor effect of the compounds was expressed by TGI (%). TGI (%), reflecting tumor growth inhibition rate. Calculation of TGI(%): TGI(%)=[(1-(average tumor volume at the end of administration of a treatment group−average tumor volume at the beginning of administration of the treatment group))/(average tumor volume at the end of treatment of the solvent control group−average tumor volume at the beginning of treatment of the solvent control group)]×100%. 5. Animal experiment grouping, administration program and experimental results: […]

[2] = biological target: T1, LRBA and CTLA-4 reporting system (Homo sapiens, UniProt P16410+P50851); assay: LRBA/CTLA-4 protein-protein interaction reporting system, dual luciferase assay in HEK293 cells; format: cell-based; conditions: HEK293 cells co-transfected with LRBA and CTLA-4 reporting system, 24 h after dosing; read-out: In vitro activity (IC50: concentration of compounds that inhibit 50% of reporting system activity)
T1 construct: expressed in transfected cells; host or cells: HEK293
T1 sequence (P16410 36-223): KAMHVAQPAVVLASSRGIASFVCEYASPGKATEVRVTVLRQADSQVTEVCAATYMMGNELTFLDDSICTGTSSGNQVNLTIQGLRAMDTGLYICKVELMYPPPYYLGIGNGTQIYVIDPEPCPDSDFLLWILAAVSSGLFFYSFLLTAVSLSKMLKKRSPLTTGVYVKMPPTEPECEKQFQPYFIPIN
T1 sequence (P50851 whole entry): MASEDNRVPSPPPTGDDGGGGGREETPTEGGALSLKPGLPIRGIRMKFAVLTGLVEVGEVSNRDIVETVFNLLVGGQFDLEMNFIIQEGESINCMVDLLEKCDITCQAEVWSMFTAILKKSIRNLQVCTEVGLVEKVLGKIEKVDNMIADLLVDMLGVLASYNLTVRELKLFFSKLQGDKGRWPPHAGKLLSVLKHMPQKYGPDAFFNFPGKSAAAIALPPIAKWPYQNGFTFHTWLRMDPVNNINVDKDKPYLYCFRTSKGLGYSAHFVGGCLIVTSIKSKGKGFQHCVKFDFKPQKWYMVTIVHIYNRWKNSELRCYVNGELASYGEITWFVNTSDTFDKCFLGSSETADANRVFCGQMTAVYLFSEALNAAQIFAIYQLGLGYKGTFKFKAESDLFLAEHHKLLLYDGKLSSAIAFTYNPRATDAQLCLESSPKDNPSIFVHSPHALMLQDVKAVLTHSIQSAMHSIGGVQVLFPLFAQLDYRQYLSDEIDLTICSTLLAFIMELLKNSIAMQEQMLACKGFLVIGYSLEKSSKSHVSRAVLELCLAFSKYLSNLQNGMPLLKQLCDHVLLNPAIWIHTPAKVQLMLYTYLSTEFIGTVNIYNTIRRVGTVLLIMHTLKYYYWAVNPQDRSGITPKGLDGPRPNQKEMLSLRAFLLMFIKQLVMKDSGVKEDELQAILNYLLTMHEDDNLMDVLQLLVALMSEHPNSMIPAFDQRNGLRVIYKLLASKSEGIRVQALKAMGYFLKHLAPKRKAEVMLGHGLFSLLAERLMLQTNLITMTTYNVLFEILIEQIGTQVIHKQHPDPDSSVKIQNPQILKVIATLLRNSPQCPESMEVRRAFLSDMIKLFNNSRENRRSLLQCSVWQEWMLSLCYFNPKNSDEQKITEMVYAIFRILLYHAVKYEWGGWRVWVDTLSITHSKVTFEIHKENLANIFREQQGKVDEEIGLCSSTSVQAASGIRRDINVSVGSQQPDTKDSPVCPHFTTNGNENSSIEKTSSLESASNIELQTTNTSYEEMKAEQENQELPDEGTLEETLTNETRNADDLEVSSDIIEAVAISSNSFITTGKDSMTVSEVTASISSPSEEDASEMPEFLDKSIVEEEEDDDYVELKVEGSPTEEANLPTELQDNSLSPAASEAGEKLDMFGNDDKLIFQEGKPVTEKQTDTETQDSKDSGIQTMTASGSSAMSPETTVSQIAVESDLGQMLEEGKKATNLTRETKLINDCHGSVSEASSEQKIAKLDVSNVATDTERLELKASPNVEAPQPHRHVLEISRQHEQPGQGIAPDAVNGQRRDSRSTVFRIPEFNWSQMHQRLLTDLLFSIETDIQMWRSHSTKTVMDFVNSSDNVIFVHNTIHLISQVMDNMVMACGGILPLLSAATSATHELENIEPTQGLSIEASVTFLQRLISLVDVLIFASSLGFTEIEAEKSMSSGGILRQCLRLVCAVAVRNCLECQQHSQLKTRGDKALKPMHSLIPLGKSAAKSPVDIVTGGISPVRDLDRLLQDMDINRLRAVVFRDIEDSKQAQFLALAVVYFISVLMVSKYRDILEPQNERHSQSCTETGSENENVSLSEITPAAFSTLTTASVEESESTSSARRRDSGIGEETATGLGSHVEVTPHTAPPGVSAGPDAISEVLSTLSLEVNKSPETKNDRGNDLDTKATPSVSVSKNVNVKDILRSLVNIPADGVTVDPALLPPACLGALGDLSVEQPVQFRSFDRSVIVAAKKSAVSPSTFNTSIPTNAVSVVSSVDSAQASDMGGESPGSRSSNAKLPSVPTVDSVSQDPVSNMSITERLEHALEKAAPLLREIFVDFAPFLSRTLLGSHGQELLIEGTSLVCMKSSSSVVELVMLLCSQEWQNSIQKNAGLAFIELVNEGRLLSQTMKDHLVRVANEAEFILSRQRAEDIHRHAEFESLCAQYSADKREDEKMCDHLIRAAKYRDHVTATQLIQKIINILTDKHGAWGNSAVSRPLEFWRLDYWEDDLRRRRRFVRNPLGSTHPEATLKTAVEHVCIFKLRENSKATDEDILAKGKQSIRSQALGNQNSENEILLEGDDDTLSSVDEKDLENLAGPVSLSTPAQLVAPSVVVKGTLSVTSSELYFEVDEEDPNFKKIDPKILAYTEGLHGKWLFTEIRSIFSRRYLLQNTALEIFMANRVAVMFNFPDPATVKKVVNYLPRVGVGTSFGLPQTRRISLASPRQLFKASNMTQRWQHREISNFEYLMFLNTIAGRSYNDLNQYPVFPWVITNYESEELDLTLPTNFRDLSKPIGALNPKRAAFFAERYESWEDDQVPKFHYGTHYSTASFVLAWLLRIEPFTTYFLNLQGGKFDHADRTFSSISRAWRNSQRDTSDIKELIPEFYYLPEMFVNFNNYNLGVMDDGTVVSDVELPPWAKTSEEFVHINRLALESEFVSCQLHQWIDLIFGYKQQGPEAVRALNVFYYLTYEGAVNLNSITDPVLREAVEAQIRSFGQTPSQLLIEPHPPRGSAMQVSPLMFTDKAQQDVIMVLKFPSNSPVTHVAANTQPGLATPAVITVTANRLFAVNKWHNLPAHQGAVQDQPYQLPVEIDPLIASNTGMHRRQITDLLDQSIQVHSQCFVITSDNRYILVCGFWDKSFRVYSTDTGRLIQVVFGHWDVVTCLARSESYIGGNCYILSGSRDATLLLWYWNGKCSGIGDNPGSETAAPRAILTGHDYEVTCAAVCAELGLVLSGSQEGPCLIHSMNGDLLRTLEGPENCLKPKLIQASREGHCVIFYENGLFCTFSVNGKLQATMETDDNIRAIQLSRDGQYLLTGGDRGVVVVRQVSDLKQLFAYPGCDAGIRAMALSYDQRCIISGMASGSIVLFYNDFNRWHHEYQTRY
Protocol: HEK293 cells were spread on 96-well plates, and LRBA and CTLA-4 reporting system were co-transfected into HEK293 cells after 24 h. After 24 h, different compounds with final concentrations of 0.01, 0.033, 0.10, 0.33, 1.00, 3.33, 10.00, 33.33, and 100.00 μM were added. 24 h after dosing, the cell culture medium was removed and the cells were washed with cold PBS. Then the activity of the compounds were detected by the dual luciferase assay kit, and IC50 values were calculated according to the results.
For the compounds with strong activity (IC50<200 nM), the degradation of CTLA-4 protein was further detected by Western Blot. • IC50: Concentration of compounds that inhibit 50% of reporting system activity The size of IC50 is divided into four levels: • ++++, IC50<200 nM; +++, IC50 is 200-1000 nM; ++, IC50 is 1000-2000 nM; +, IC50>2000 nM.

Hepatocellular carcinoma = conditions: clinical; cited from earlier work
[3] = tested on: Non-small cell lung cancer; conditions: clinical; cited from earlier work
[4] = tested on: Colorectal cancer (MSI-H/dMMR); conditions: clinical; cited from earlier work

| Compound | TGI(%) [1] [%] | IC50 [2] [nM] | also measured |
| --- | --- | --- | --- |
| c1ccc2ncc(-c3ccnc(N4CCNCC4)n3)cc2c1 [Compound 18, 3-(2-(piperazin-1-yl)pyrimidin-4-yl)quinoline] | 90 | < 200 | anti-tumor effect in tumor transplantation model in vivo ([1]; MC-38 model): excellent anti-tumor effects |
| c1ccc2ncc(-c3cc(N4CCNCC4)ncn3)cc2c1 [Compound 44, 3-(6-(piperazin-1-yl)pyrimidin-4-yl)quinoline] | 85 | < 200 | – |
| Nivolumab [O drug] | – | – | ORR (Hepatocellular carcinoma): single O drug group ORR = 15%; ORR [3]: single O drug group ORR = 14.5%; ORR [4]: single O drug group ORR = 36% |
| c1ccc2ncc(-c3cc4nccn4c(N4CCNCC4)n3)cc2c1 [Compound 41, 3-(5-(piperazin-1-yl)imidazo[1,2-c]pyrimidin-7-yl)quinoline] | – | 200 to 1000 | – |
| Nc1cc(N2CCNCC2)nc(-c2cnc3ccccc3c2)n1 [Compound 48, 6-(piperazin-1-yl)-2-(quinolin-3-yl)pyrimidin-4-amine] | – | 1000 to 2000 | – |
